Values after ≈ are worked out from the molar mass of the structure shown.
What was measured:
[1] = test system: A. thermomutatus; experiment: MIC against moulds; assay type: cell-based; settings: for MIC A. thermomutatus: 6 isolates, AmB (AmBisome)
[2] = Solubility in D5W; settings: solubility in D5W
[3] = test system: CEA10 (clinical isolate); experiment: MIC against azole and echinocandin resistant fungal strains (CLSI); assay type: cell-based, A. funigatus; settings: read-out: MIC CEA10
Method: This experiment was performed following the standard CLSI protocol.

Compound: C[C@@H]1[C@H](O)[C@@H](C)/C=C/C=C/C=C/C=C/C=C/C=C/C=C/[C@H](OC2O[C@H](C)[C@@H](O)[C@H](N)[C@@H]2O)C[C@@H]2O[C@](O)(C[C@@H](O)C[C@@H](O)[C@H](O)CC[C@@H](O)C[C@@H](O)CC(=O)O[C@H]1C)C[C@H](O)[C@H]2C(=O)O (stereo partly drawn) [AmB, Amphotericin B]
- MIC ([1]; Aspergillus thermomutatus, read-out: MIC A. thermomutatus): 0.6 µM (≈ 0.554 µg/mL)

Compound: CC1C=CC=CC=CC=CC=CC=CC=CC(OC2OC(C)C(O)C(N)C2O)CC2OC(O)(CC(O)CC(O)C(O)CCC(O)CC(O)CC(=O)OC(C)C(C)C1O)CC(O)C2C(=O)NC(CO)CO (stereo not drawn) [Compound 1]
- MIC A. thermomutatus [1]: 1.45 µM (≈ 1.45 µg/mL)
- Fold of Increase w.r.t. AmB [2]: >314

Compound: CC1C=CC=CC=CC=CC=CC=CC=CC(OC2OC(C)C(O)C(N)C2O)CC2OC(O)(CC(O)CC(O)C(O)CCC(O)CC(O)CC(=O)OC(C)C(C)C1O)CC(O)C2C(=O)NC(CO)(CO)CO (stereo not drawn) [Compound 2]
- MIC A. thermomutatus [1]: 2.1 µM (≈ 2.16 µg/mL)
- Fold of Increase w.r.t. AmB [2]: 15.9

Compound: C[C@@H](c1ncncc1F)[C@](O)(Cn1cncn1)c1ccc(F)cc1F [Voriconazole]
- MIC [3]: 1.43 µM (≈ 0.5 µg/mL)

— patent US12655173B2, “Hybrid amide derivatives of amphotericin B” (priority 2020, dated 2026)
